Paper PMC10145651, “Modulation of the 5-Lipoxygenase Pathway by Chalcogen-Containing Inhibitors of Leukotriene A4 Hydrolase” (International Journal of Molecular Sciences, 2023)
Read-outs that look alike come from different tables or passages of the source.

Assays:
[1] = molecular target: T1, LTA4H (Homo sapiens, UniProt P09960); parameters: made in house; host or cells: Escherichia coli JM101; method as in PMID 24591641; details: previously demonstrated; cited from earlier work
T1 sequence (P09960 1-611): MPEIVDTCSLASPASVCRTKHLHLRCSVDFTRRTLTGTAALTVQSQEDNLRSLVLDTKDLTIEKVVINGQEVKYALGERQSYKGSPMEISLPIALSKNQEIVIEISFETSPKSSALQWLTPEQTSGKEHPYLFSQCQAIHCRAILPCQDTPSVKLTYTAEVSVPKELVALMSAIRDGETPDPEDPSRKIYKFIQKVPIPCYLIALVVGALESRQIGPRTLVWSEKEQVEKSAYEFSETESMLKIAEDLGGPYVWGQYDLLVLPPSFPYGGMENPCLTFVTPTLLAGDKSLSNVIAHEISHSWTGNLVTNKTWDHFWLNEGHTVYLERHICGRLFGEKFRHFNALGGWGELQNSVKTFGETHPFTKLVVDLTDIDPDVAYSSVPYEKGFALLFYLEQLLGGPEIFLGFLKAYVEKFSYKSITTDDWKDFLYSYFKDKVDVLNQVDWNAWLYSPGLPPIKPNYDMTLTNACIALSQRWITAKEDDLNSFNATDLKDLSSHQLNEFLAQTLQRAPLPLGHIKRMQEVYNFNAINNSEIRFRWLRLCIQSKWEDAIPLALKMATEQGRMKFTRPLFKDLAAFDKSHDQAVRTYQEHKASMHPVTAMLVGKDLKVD

[2] = molecular target: T2, 5-LOX (Homo sapiens, UniProt P09917); test: 5-LOX product formation from intact PMNs: 5S-HETE (cellular activity of 5-LOX); type: cell-based; parameters: stimulated intact polymorphonuclear neutrophils (PMNs); endogenous in cells; host or cells: human primary polymorphonuclear neutrophils (PMNs) from peripheral blood; details: for inhibitory effect on the 5-LOX activity (5S-HETE) in PMNs with exogenous AA: 0.5 µM inhibitor, 0–20 µM AA
T2 sequence (P09917 1-674): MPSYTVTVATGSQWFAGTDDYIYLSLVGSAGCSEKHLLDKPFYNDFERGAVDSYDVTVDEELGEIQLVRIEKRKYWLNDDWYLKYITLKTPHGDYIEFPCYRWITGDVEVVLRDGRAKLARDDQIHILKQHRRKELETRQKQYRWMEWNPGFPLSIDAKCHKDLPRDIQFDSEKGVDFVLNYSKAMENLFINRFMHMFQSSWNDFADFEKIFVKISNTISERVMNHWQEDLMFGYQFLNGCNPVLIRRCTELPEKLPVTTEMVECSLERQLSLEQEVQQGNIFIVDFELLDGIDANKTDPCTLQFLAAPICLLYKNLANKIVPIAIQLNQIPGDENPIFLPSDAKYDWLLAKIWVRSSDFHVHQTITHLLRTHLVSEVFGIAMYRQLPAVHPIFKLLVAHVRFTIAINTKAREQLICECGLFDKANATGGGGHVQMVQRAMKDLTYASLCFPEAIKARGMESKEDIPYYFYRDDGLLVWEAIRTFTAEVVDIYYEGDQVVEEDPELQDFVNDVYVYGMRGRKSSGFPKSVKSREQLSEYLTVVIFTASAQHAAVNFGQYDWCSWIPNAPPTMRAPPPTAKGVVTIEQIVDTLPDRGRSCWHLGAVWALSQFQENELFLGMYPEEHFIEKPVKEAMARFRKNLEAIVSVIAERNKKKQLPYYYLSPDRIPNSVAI
Protocol: Human primary leukocytes were isolated from peripheral blood of healthy adult volunteers provided by the Institute of Transfusion Medicine at the University Hospital Greifswald as described before. All methods were performed in accordance with the Declaration of Helsinki. In brief, erythrocytes were removed by dextran sedimentation and leukocytes were separated by the density gradient centrifugation on a lymphocyte separation medium (Histopaque®-1077, Merck, Darmstadt, Germany). The remaining erythrocytes were removed by hypotonic lysis using water, and resulting polymorphonuclear neutrophils (PMNs) were resuspended in PBS containing 0.1% (w/v) glucose (PG buffer) or PG buffer with 1 mM CaCl2 (PGC buffer) as indicated. Resulting peripheral blood mononuclear cells (PBMC), including monocytes, were seeded in the RPMI 1640 medium supplemented with 10% (v/v) FCS, 100 U/mL penicillin, 100 µg/mL streptomycin and 2 mM L-glutamine in cell culture flasks (Greiner Bio-one, Frickenhausen, Germany) for 1.5 h at 37 °C and 5% CO2. Adherent monocytes were washed twice with PBS and were finally resuspended in the RPMI 1640 medium as described before.
PMNs (5 × 10^6 cells/mL) were diluted in PGC buffer and pre-incubated with the vehicle (0.1%; v/v) or compounds for 10 min at 37 °C prior to the stimulation with 2.5 µM A23187. After 10 min at 37 °C, treatments were stopped on ice with an equal volume of ice-cold methanol. Next, 530 µL acidified PBS containing 200 ng PGB1 as an internal standard were added to the sample followed by the solid phase extraction with on a RP18 column. […] Formed 5-LOX metabolites were analyzed as described previously.

[3] = molecular target: T1, LTA4H; test: Aminopeptidase assay of LTA4H with the PGP substrate; type: biochemical; parameters: made in house; host or cells: Escherichia coli JM101; details: 800 μM PGP, 0–100 μM inhibitor
Protocol: The reaction was stopped by addition of 150 μL of acetic acid. To detect and quantify released N-terminal proline, incubations with 150 μL of ninhydrin solution (25 mg/mL) were carried out at 100 °C for 45 min. Samples were cooled down and purple-colored ninhydrin conjugates were extracted with 350 μL toluene and the upper phase was transferred to a polypropylene 96-well plate (Greiner Bio-One, Kremsmünster, Austria). All incubations were carried out in triplicates and absorbance was measured at 495 nm using a TECAN Infinite M200 plate reader. Specific peptidase activities were determined based on the standard curve of free L-proline (Figure S10).

[4] = A23187-activated intact PMNs, 5S-HETE formation, read-out: IC50 on the 5-LOX activity (5S-HETE) in PMNs

Nc1nc(-c2ccc(Cc3ccccc3)cc2)cs1 [ARM1, 4-(4-benzylphenyl) thiazol-2-amine, reference compound]
effect on PGP cleavage by LTA4H [1]: remains unaffected | IC50 [2, 4]: 1700 nM

Nc1nc(-c2ccc(Cc3ccccc3)cc2)c[se]1 [TTSe, 4-(4-benzylphenyl) selenazol-2-amine]
IC50 [2]: 2300 nM | inhibitory effect on the 5-LOX activity (5S-HETE) in PMNs with exogenous AA [2]: did not have any inhibitory effects | effect on the cleavage of the PGP tripeptide by recombinant LTA4H [3]: did not influence

Nc1nc(-c2ccc(Cc3ccccc3)cc2)co1 [TTO, 4-(4-benzylphenyl) oxazol-2-amine]
inhibitory effect on the 5-LOX activity (5S-HETE) in PMNs with exogenous AA [2]: did not have any inhibitory effects | IC50 [2, 4]: 2300 nM | effect on the cleavage of the PGP tripeptide by recombinant LTA4H [3]: did not influence
